The values that follow are results of earlier work, collected in patent US9375436B2, “Androgen treatment in females” (priority 2004, dated 2016).

The test system of this data set is older mice. The following applies: cited from earlier work.

Consider `COC1=C(OC)C(=O)C(C/C=C(\C)CC/C=C(\C)CC/C=C(\C)CC/C=C(\C)CC/C=C(\C)CC/C=C(\C)CC/C=C(\C)CC/C=C(\C)CC/C=C(\C)CCC=C(C)C)=C(C)C1=O` [CoQ10, coenzyme Q10], for which the oocytes numbers result was “increases oocytes numbers”.
